# In patent US7786141B2 (Vertex Pharmaceuticals Incorporated, priority 2004, dated 2010):
# Read-outs that look alike come from different tables or passages of the source.
# Tests used:
# [1] = target: T1, M1 muscarinic receptor (Homo sapiens, UniProt P11229); experiment: Functional mobilization of intracellular calcium (FLIPR) in M1-CHO cells; format: cell-based
# T1 construct: expressed in transfected cells; host or cells: CHO (M1-CHO)
# T1 sequence (P11229 1-460): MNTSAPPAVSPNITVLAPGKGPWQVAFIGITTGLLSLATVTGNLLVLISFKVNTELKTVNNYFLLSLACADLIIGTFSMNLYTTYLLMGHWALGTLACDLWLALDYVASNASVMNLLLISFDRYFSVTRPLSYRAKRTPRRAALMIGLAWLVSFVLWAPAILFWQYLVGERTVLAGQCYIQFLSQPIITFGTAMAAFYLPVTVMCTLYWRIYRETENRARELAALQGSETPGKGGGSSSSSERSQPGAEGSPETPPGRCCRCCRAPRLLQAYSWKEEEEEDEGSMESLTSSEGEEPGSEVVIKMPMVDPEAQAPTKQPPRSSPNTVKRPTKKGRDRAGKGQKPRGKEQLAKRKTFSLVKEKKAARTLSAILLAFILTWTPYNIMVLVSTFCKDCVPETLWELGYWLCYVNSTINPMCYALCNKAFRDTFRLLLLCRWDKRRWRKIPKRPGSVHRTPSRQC
# How it was run: (§1)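 Intracellular calcium rise is measured by FLIPR fluorescence over 60 sec in CHO cells carrying human M1 or M4 receptors. Compounds are tested alone as agonists, or pre-incubated 15 min (or co-applied) ahead of carbachol at its EC80 to detect inhibition.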
# [2] = target: T2, M4 muscarinic receptor (Homo sapiens, UniProt P08173); experiment: Functional mobilization of intracellular calcium (FLIPR) in M4-CHO cells; format: cell-based
# T2 construct: expressed in transfected cells; host or cells: CHO (M4-CHO)
# T2 sequence (P08173 1-479): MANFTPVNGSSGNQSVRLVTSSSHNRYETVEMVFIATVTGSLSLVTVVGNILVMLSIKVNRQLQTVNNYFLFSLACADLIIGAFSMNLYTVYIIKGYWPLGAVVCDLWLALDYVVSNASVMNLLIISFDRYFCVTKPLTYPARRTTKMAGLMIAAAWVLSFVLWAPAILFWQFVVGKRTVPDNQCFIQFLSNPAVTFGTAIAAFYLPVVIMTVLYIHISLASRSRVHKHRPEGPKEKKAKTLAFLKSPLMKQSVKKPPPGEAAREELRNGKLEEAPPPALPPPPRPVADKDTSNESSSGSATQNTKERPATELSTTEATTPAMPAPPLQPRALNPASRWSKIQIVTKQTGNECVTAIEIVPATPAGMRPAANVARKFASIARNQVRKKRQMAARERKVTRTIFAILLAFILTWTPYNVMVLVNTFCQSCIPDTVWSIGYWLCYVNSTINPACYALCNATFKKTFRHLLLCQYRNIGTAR
# How it was run: as §1
# [3] = Table 4, 100% efficacy is the maximum response obtained with the Carbachol control
# [4] = Table 4, M1 receptor, calcium mobilization (FLIPR)
# [5] = Table 4, M4 receptor, calcium mobilization (FLIPR)
# [6] = Table 4, modulating M1 receptor
# [7] = Table 4, modulating M4 receptor
# [8] = M1 receptor, calcium mobilization
# [9] = M1 receptor, calcium mobilization, read-out: M1 Efficacy
# [10] = M4 receptor, calcium mobilization
# [11] = M4 receptor, calcium mobilization, read-out: M4 Efficacy
# [12] = M1-CHO cells, calcium mobilization (FLIPR)
# [13] = M1-CHO cells, calcium mobilization (FLIPR), read-out: M1 Efficacy
# [14] = M4-CHO cells, calcium mobilization (FLIPR)
# [15] = M4-CHO cells, calcium mobilization (FLIPR), read-out: M4 Efficacy
# [16] = 100% efficacy is the maximum response obtained with the Carbachol control, Table 5
Structure (SMILES),"Emax [1, 3] [%]","Emax [2, 3] [%]","M1 Activity [1, 6]","M4 Activity [2, 7]","M1 Activity [1, 8]","Emax [1, 9] [%]","M4 Activity [2, 10]","Emax [2, 11] [%]",other results
CCOC1CCCCC1N1CCC2(CC1)CN(C(C)=O)c1ccc(F)cc12 (centres unmarked) [compound 849],< 25,< 25,–,–,–,–,–,–,"M1 Activity [1, 4]: x (activity was measured to be greater than 5.0 μM); M4 Activity [2, 5]: x (activity was measured to be greater than 5.0 μM)"
CCOC(=O)N1CCC(N2CCC3(CC2)CN(C(C)=O)c2c(-c4ccc(C(N)=O)cc4)cccc23)CC1 [compound 629],25 to 100,25 to 100,xx (activity was measured to be between 2.0 μM and 5.0 μM),xx (activity was measured to be between 2.0 μM and 5.0 μM),–,–,–,–,–
CCOC(=O)N1CCC(N2CCC3(CC2)CN(C(C)=O)c2ccc(-c4ccccc4C#N)cc23)CC1 [compound 277],–,–,–,–,xxx (activity was measured to be less than 0.1 μM),65 to 85,x (activity was measured to be greater than 1.0 μM),< 65,–
CCOC(=O)N1CCC(N2CCC3(CC2)CN(C(C)=O)c2ccc(-c4ccc(F)cc4)cc23)CC1 [compound 950],25 to 100,25 to 100,–,–,–,–,–,–,"M1 Activity [1, 4]: xx (activity was measured to be between 2.0 μM and 5.0 μM); M4 Activity [2, 5]: xx (activity was measured to be between 2.0 μM and 5.0 μM)"
COCCOC(=O)N1CCCC(N2CCC3(CC2)CN(C(C)=O)c2ccc(F)cc23)CC1 (centres unmarked) [compound 65],–,–,–,–,xx (activity was measured to be between 0.1 μM and 1.0 μM),65 to 85,x (activity was measured to be greater than 1.0 μM),< 65,–
Clc1ccc2c(c1)C1(CCN(C3CCCCC3)CC1)CN2 [compound 155],–,–,–,–,xxx (activity was measured to be less than 0.1 μM),> 85,x (activity was measured to be greater than 1.0 μM),> 85,–
CCOC(=O)N1CCC(N2CCC3(CC2)CN(C(C)=O)c2c(C(F)(F)F)cccc23)CC1 [compound 551],< 25,25 to 100,x (activity was measured to be greater than 5.0 μM),x (activity was measured to be greater than 5.0 μM),–,–,–,–,–
CC(=O)N[C@H]1CCC2(CCN(CC3CC3)CC2)c2ccccc21 [compound 514],25 to 100,25 to 100,xx (activity was measured to be between 2.0 μM and 5.0 μM),x (activity was measured to be greater than 5.0 μM),–,–,–,–,–
Cc1ccc2c(c1)C1(CCN(C3CC4CCC3C4)CC1)CN2C(=O)c1cc(C)n(C)n1 (centres unmarked) [compound 211],–,–,–,–,x (activity was measured to be greater than 1.0 μM),65 to 85,x (activity was measured to be greater than 1.0 μM),< 65,–
CCOC(=O)N1CCC(N2CCC3(CC2)CN(C(=O)OCC)c2ccc(F)cc23)CC1 [compound 427],–,–,–,–,–,–,–,–,"EC50 [1, 12]: 100 to 1000 nM; Emax [1, 13]: < 65%; EC50 [2, 14]: > 1000 nM; Emax [2, 15]: < 65%"
COc1cccc(N2CCC(N3CCC4(CC3)CN(C(=O)N(C)C)c3ccc(F)cc34)CC2)c1 [compound 1028],–,–,–,–,–,–,–,–,"Emax [1, 16]: 25 to 100%; EC50 ([1]; CHO cells expressing M1, calcium mobilization, Table 5): 2000 to 10000 nM; Emax [2, 16]: 25 to 100%; EC50 ([2]; CHO cells expressing M4, calcium mobilization, Table 5): < 2000 nM"
CCOC(=O)N1CCC(N2CCC3(CC2)CN(C(C)=O)c2ccc(-c4ccccc4)cc23)CC1 [compound 126],–,–,–,–,xxx (activity was measured to be less than 0.1 μM),< 65,x (activity was measured to be greater than 1.0 μM),< 65,–
CC(=O)N[C@H]1CCC2(CCN(CCC3CC4CCC3C4)CC2)c2ccccc21 (some centres unmarked) [compound 581],25 to 100,< 25,xxx (activity was measured to be less than 2.0 μM),xxx (activity was measured to be less than 2.0 μM),–,–,–,–,–
CC(=O)N[C@H]1CC2(CCN(C34CCCCC3C4)CC2)c2ccccc21 (some centres unmarked) [compound 834],25 to 100,25 to 100,–,–,–,–,–,–,"M1 Activity [1, 4]: xxx (activity was measured to be less than 2.0 μM); M4 Activity [2, 5]: xxx (activity was measured to be less than 2.0 μM)"
CCOC(=O)N1CCC(N2CCC3(CC2)CN(c2nc(C)ns2)c2ccccc23)CC1 [compound 700],> 100,> 100,xxx (activity was measured to be less than 2.0 μM),xxx (activity was measured to be less than 2.0 μM),–,–,–,–,–
CC(=O)NC1CC2(CCN(C[C@H]3C[C@H]4C=C[C@H]3C4)CC2)c2ccccc21 (some centres unmarked) [compound 213],–,–,–,–,xx (activity was measured to be between 0.1 μM and 1.0 μM),65 to 85,x (activity was measured to be greater than 1.0 μM),< 65,–
CS(=O)(=O)N[C@H]1CC2(CCN(C[C@H]3C[C@H]4C=C[C@H]3C4)CC2)c2ccccc21 [compound 70],–,–,–,–,xx (activity was measured to be between 0.1 μM and 1.0 μM),65 to 85,x (activity was measured to be greater than 1.0 μM),65 to 85,–
CC(=O)N1CC2(CCN(C3CCN(c4cncc(-c5ccc(F)cc5)n4)CC3)CC2)c2ccccc21 [compound 556],25 to 100,< 25,x (activity was measured to be greater than 5.0 μM),x (activity was measured to be greater than 5.0 μM),–,–,–,–,–
CCOC(=O)N1CCC(N2CCC3(CC2)CN(C(=O)c2ccccc2F)c2ccc(F)cc23)CC1 [compound 267],–,–,–,–,x (activity was measured to be greater than 1.0 μM),< 65,x (activity was measured to be greater than 1.0 μM),< 65,–
CCOC(=O)N1C2CCC1CC(N1CCC3(CC1)C[C@H](NC(C)=O)c1ccccc13)C2 (some centres unmarked) [compound 359],–,–,–,–,xx (activity was measured to be between 0.1 μM and 1.0 μM),< 65,xx (activity was measured to be between 0.1 μM and 1.0 μM),< 65,–
C/C=C\c1ccc2c(c1)C1(CCN(C3CCN(C(=O)OCC)CC3)CC1)CN2C(C)=O [compound 407],–,–,–,–,–,–,–,–,"EC50 [1, 12]: 100 to 1000 nM; Emax [1, 13]: < 65%; EC50 [2, 14]: > 1000 nM; Emax [2, 15]: < 65%"
C#CCOC(=O)N1CC[C@@H](CN2CCC3(CC2)CN(C(C)=O)c2cccc(C)c23)C1 [compound 564],25 to 100,25 to 100,xxx (activity was measured to be less than 2.0 μM),xxx (activity was measured to be less than 2.0 μM),–,–,–,–,–
CN(C)C(=O)N1CC2(CCN(C3CCN(c4ncccn4)CC3)CC2)c2cc(F)ccc21 [compound 790],25 to 100,25 to 100,xx (activity was measured to be between 2.0 μM and 5.0 μM),xxx (activity was measured to be less than 2.0 μM),–,–,–,–,–
